Measured values from PubChem BioAssay (NCI).
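Where inhibition never reached the appropriate level, the endpoint shown equals the highest concentration tested. Otherwise, values were interpolated linearly from a five-concentration, 48-hour dose response in 96-well plates. TGI: total growth inhibition.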

What was measured:
Assay in all cases: inhibition of tumour cell growth, NCI panel, 48 h
SK-MEL-28 melanoma = system: SK-MEL-28 melanoma
OVCAR-3 ovarian = system: OVCAR-3 ovarian
OVCAR-8 ovarian = system: OVCAR-8 ovarian
A549 NSCLC = system: A549 NSCLC
HCC-2998 colon = system: HCC-2998 colon
SNB-78 CNS = system: SNB-78 CNS
HL-60(TB) leukemia = system: HL-60(TB) leukemia
HCT-15 colon = system: HCT-15 colon
SF-268 CNS = system: SF-268 CNS
UO-31 renal = system: UO-31 renal
DLD-1 colon = system: DLD-1 colon
RXF-631 renal = system: RXF-631 renal
SF-295 CNS = system: SF-295 CNS
786-0 renal = system: 786-0 renal
HCT-116 colon = system: HCT-116 colon
DMS 273 small cell lung = system: DMS 273 small cell lung
UACC-257 melanoma = system: UACC-257 melanoma
CCRF-CEM leukemia = system: CCRF-CEM leukemia
KM20L2 colon = system: KM20L2 colon
MOLT-4 leukemia = system: MOLT-4 leukemia
SF-539 CNS = system: SF-539 CNS
OVCAR-5 ovarian = system: OVCAR-5 ovarian
NCI-H460 lung = system: NCI-H460 lung
EKVX NSCLC = system: EKVX NSCLC
MALME-3M melanoma = system: MALME-3M melanoma
M19-MEL melanoma = system: M19-MEL melanoma
SR leukemia = system: SR leukemia
NCI-H23 lung = system: NCI-H23 lung
RXF 393 renal = system: RXF 393 renal
HT29 colon = system: HT29 colon
LOX IMVI melanoma = system: LOX IMVI melanoma
COLO 205 colon = system: COLO 205 colon
SN12C renal = system: SN12C renal
TK-10 renal = system: TK-10 renal
UACC-62 melanoma = system: UACC-62 melanoma
SNB-19 CNS = system: SNB-19 CNS
HOP-18 NSCLC = system: HOP-18 NSCLC
U251 CNS = system: U251 CNS
ACHN renal = system: ACHN renal
SK-MEL-2 melanoma = system: SK-MEL-2 melanoma
LXFL 529 NSCLC = system: LXFL 529 NSCLC
HOP-62 NSCLC = system: HOP-62 NSCLC
RPMI-8226 leukemia = system: RPMI-8226 leukemia
HOP-92 NSCLC = system: HOP-92 NSCLC
SNB-75 CNS = system: SNB-75 CNS
NCI-H226 lung = system: NCI-H226 lung
SK-OV-3 ovarian = system: SK-OV-3 ovarian
SW-620 colon = system: SW-620 colon
XF 498 CNS = system: XF 498 CNS
IGROV1 ovarian = system: IGROV1 ovarian
A498 renal = system: A498 renal
OVCAR-4 ovarian = system: OVCAR-4 ovarian
SK-MEL-5 melanoma = system: SK-MEL-5 melanoma
NCI-H522 lung = system: NCI-H522 lung
K-562 leukemia = system: K-562 leukemia
KM12 colon = system: KM12 colon
M14 melanoma = system: M14 melanoma
DMS 114 small cell lung = system: DMS 114 small cell lung
CAKI-1 renal = system: CAKI-1 renal

Measured: TGI

COc1cc(Nc2cnc3cc(C(F)(F)F)ccc3n2)cc(OC)c1OC
not listed: IGROV1 ovarian | A498 renal | OVCAR-4 ovarian | SK-MEL-5 melanoma | NCI-H522 lung | K-562 leukemia | KM12 colon | M14 melanoma | DMS 114 small cell lung | CAKI-1 renal
> 100 µM: all other assays above

NC(N)=NCCCC(N=c1c2ccccc2n(O)c2ccccc12)C(=O)O (stereo unspecified)
75.7 µM: RPMI-8226 leukemia
87.6 µM: SNB-75 CNS
58.5 µM: HL-60(TB) leukemia
90.1 µM: SK-MEL-28 melanoma
66.6 µM: SK-MEL-5 melanoma
not listed: SNB-78 CNS | UACC-257 melanoma | SF-539 CNS | SR leukemia | RXF 393 renal | HT29 colon | HOP-92 NSCLC | XF 498 CNS | CAKI-1 renal
> 100 µM: all other assays above

Cc1ccc(S(=O)(=O)N/N=C(\CCN2CCCC2)CC(c2ccccc2)c2c(O)c3ccccc3oc2=O)cc1 (stereo unspecified)
not listed: SK-MEL-28 melanoma | HCC-2998 colon | DMS 273 small cell lung | MOLT-4 leukemia | COLO 205 colon | DMS 114 small cell lung
> 100 µM: all other assays above

CC(=O)N(C)OC(=O)CC(=O)c1ccccc1
not listed: HCT-15 colon | EKVX NSCLC | HOP-18 NSCLC | SK-MEL-2 melanoma | A498 renal
> 100 µM: all other assays above
